This is an account of results in patent publication US6107549A, “Genetically engineered plant resistance to thiazopyr and other pyridine herbicides” (Monsanto Company, priority 1999, dated 2000).

Some results are limits rather than exact numbers.

One series has as its system pyridine-esterase. The format is biochemical, rabbit. As to the method: Esterase activity assays. Esterase activity was measured in vitro by conversion of either [^14 C]thiazopyr or [^14 C]MON 14300 to their corresponding monoacid. Pyridine-esterase activity was assayed during protein purification and from tissue extracts of transgenic plants. The homogenizing buffer for plant tissues consisted of 100 mM Tris pH 8.0, 1 mM EDTA, 1 mM DTT, and 10% glycerol in water. Plant tissues (1 g/ml buffer) including leaves, seeds, flowers, seedlings, etc. were homogenized in conical centrifuge tubes using a spinning pestle at 4° C. Following centrifugation (12,000× g), the supernatant (250 μl) was assayed immediately for esterase activity by incubation with [^14 C]thiazopyr or [^14 C]MON 14300 (4 μg) in 0.1 M Tris pH 8.0 buffer (50 μl) at 37° C. The reaction was sampled (100 μL) at various times (0.5 to 100 hr) to generate a kinetic profile of monoacid formation. The reaction was stopped by addition of 1% trifluoroacetic acid in acetonitrile (v/v, 150 μl). Following centrifugation (12,000× g for 3 min), the supernatant was analyzed by HPLC/RAD (radioactivity detection) to resolve the monoacid from the parent herbicide and other metabolites. Control reactions in the absence of the esterase recovered un-reacted thiazopyr or MON 14300 for the duration of experiments. Esterase activity was also assayed during protein purification following a similar procedure except a single time-point (1-2 hrs) of incubation was selected within the linear range of reaction. In vitro assays also employed three commonly used calorimetric (p-nitrophenyl butyrate) or fluorescent (4-methyl umbelliferyl butyrate and 5-bromo-4-chloro-3-indolylacetate) substrates. These substrates are useful in rapidly and qualitatively detecting general esterase activity.
Tissue extracts from 3 tobacco R1 seedlings were employed for further studies. Two of the lines (#37437 and #37432) expressed high levels of esterase (~0.5%) and one line (#37436) which expressed no pyridine-esterase was used as negative control. Tissue extracts were incubated with [^14 C]MON 14300 and formation of the monoacid monitored with time. […] In comparison, less that 2% monoacid was detected in line (#37436). […] First, pyridine-esterase was capable of driving the hydrolysis reaction to completion with no apparent product inhibition, and second, there was no endogenous esterase activity in tobacco which catalyzed MON 14300 hydrolysis.

For the next series, the system named is tomato. As to the kind of experiment: Growth chamber assay, pre-emergence application. The note with it: PE. The format is in vivo. As to the method:
Growth chamber and greenhouse assay for resistance. Pyridine herbicide resistance in transgenic tomato expressing RLE3 was examined in soil with pre-emergence (PE) applications of thiazopyr. Tomato seeds (R1 of #8255 and #8256, and control UC82B) were planted in 100 cm^2 pots (12 seeds per pot) in artificial METROMIX™ soil at a depth of 0.5 cm. Pots were watered and oversprayed with a 50% acetone/water solution (2 ml) containing thiazopyr at use rates of 0, 34, 67, 140, and 280 g/ha (grams per hectare). Pots were placed in a growth chamber (12 hr photoperiod; 60% humidity, 25° C. night/29° C. day; 600 μE light) with daily watering by subirrigation.

Consider `COC(=O)c1c(C(F)F)nc(C(F)(F)F)c(C(=O)n2cccn2)c1CC(C)C` [MON 14300], for which, in the series on pyridine-esterase (non-expressing line #37436, FIG. 3), the “hydrolysis to monoacid metabolite” value was “no hydrolysis”. Further, in the series with pyridine-esterase (tobacco, seedling tissue extract), the monoacid detected was below 2%.

Regarding `COC(=O)c1c(C(F)F)nc(C(F)(F)F)c(C2=NCCS2)c1CC(C)C` [thiazopyr], the “difference in vegetative growth between UC82B and #8256” value in the series on tomato (34 g/ha) is on record as “no detectable difference in vegetative growth”. For the same compound, the stunting result in the series with tomato (UC82B control, 67 g/ha) is given as “about 20%”; in the series on tomato (transgenic #8256, 67 g/ha) it was “none”. In addition, the growth and survival result in the series on tomato (UC82B control, 140 g/ha) was “never grew beyond the cotyledon stage and eventually all died”; in the series with tomato (transgenic #8256, 140 g/ha), “numerous healthy seedlings that were stunted but otherwise normal”. The “resistant seedlings out of 12 to 16 seeds” value in the series on tomato (transgenic R1, 140 and 280 g/ha) is “approximately 4”. For the same compound, in the series on tomato (transgenic plants, 140 and 280 g/ha), the “effect on flower development, fruit set, and seed production” value is “no effect”.
